In series [1] the test system is transplanted paddy rice. In words: Paddy field test: safety to transplanted paddy rice. The following applies: 0.25 kg/ha active component, applied to water surface 5 days after rice transplantation, examined after 3 weeks. In kind it is in vivo, paddy rice (variety: Nihonbare). The method, then: (§1) Preparation of formulation of the active compound • Carrier: Acetone 5 parts by weight • Emulsifier: Benzyloxy polyglycol ether 1 part by weight
(§2) A formulation of an active substance is obtained as an emulsifiable concentrate by mixing 1 part by weight of the active compound with the above-mentioned amount of the carrier and emulsifier. A prescribed amount of the formulation is diluted with water.
(§3) In a green house 3 seedlings of paddy rice (variety: Nihonbare) of 2.5 leaf stage (15 cm tall) were transplanted in a 500 cm^2 pot filled with paddy field soil. Then seeds or tubers of Echinochloa crusgalli, Cyperus difformis L., Scirpus juncoides Roxburgh, Monochoria vaginalis Presl, broad-leaved weeds (Lindernia Procumbens Philcox, Rotala indica Koehne, Elatine triandra Schk, Ammannia multiflora Roxb., Dopatrium junceum Hammilt etc.), Cyperus serotinus Rottboel and Sagittaria pygmaea Miq were inoculated and water was poured to a depth of about 2-3 cm. 5 days after the rice transplantation a prescribed, diluted solution of each formulation of active compound prepared according to the aforementioned preparation method was applied to the surface of water. After the treatment the water depth of 3 cm was maintained and the herbicidal effect was examined after 3 weeks from the treatment. The herbicidal effect was rated 100% in the case of complete death and as 0% in the case of no herbicidal effect.

The test system of series [2] is paddy field weeds. In words: Test for herbicidal effect against paddy field weeds. The following applies: 0.25 kg/ha active component, applied to water surface 5 days after rice transplantation, examined after 3 weeks. In kind it is in vivo. The method, then:
as §1, §2, §3

Series [3] deals with Setaria viridis. Briefly: Test of post-emergence foliage treatment against field weeds. In kind it is in vivo. To be noted: post-emergence foliage treatment at 2-leaf stage, 2.0 kg/ha effective component, examined 3 weeks after treatment. The method, then: as §1, §2
(§4) In a green house, seeds of Echinochloa crusgalli, Setaria viridis, Amaranthus retro-flexus and Polygonum were sown in a 120 cm^2 pot filled with field soil and covered with soil. 10 days after the sowing and soil covering (weeds were 2-leaf stage in average) a diluted solution of the prescribed chemical amount prepared in the same manner as in the above-mentioned Test Example 1 was spread uniformly on the foliage of the test plants in each test pot. The herbicidal effect was examined 3 weeks after the treatment.

Series [4] has as its system Echinochloa crusgalli. The series is described as above. The format is in vivo. The following applies: post-emergence foliage treatment at 2-leaf stage, 2.0 kg/ha effective component, examined 3 weeks after treatment. The method, then:
as §1, §2, §4

Series [5] has as its system Amaranthus retroflexus. Described as above. In kind it is in vivo. The following applies: post-emergence foliage treatment at 2-leaf stage, 2.0 kg/ha effective component, examined 3 weeks after treatment. The method, then:
as §1, §2, §4

Series [6] has as its system Polygonum. Described as above. The following applies: post-emergence foliage treatment at 2-leaf stage, 2.0 kg/ha effective component, examined 3 weeks after treatment. In kind it is in vivo. The method, then: as §1, §2, §4

The melting point is the temperature of the solid-liquid transition.

As for `Cc1ccc(SC2=C(C(=O)c3ccc(S(C)(=O)=O)c(Cn4ncnn4)c3Cl)C(=O)CCC2)cc1` [compound 2329], the “safety to the transplanted paddy rice” value in series [1] is reported as “safety to the transplanted paddy rice”. Further, the “herbicidal effect against paddy field weeds” value (from here on “herbicidal effect”) in series [2] was “sufficient herbicidal effect”.

Turning to `O=C1CCCC(Cl)=C1C(=O)c1ccc(Cl)c(OCCn2cnnn2)c1Cl`, the melting point was 122 to 124 °C.

As for `Cc1cccc(C)c1SC1=C(C(=O)c2ccc(S(C)(=O)=O)c(Cn3ncnn3)c2Cl)C(=O)CCC1` [compound 2335], the “safety to the transplanted paddy rice” value in series [1] is “safety to the transplanted paddy rice”. The “herbicidal effect” value in series [2] was “sufficient herbicidal effect”.

`O=C1CCCC(Sc2ccccc2)=C1C(=O)c1ccc(Cl)c(OCCn2cnnn2)c1Cl` [compound 219]: the “safety to the transplanted paddy rice” value in series [1] is “safety to the transplanted paddy rice”. For the same molecule, the “herbicidal effect” value in series [2] was “sufficient herbicidal effect”.

With `O=C1CCCC(Sc2ccccc2)=C1C(=O)c1ccc(Cl)c(OCCn2ncnn2)c1Cl` [compound 2024], the “safety to the transplanted paddy rice” value in series [1] is reported as “safety to the transplanted paddy rice”. Further, the “herbicidal effect” value in series [2] is given as “sufficient herbicidal effect”.

`O=C1CCCC(Sc2ccccc2)=C1C(=O)c1ccc(Cl)c(OCCn2cnnn2)c1Cl` yielded a melting point of 64 to 70 °C.

Take `O=C(c1ccc(Cl)c(OCCn2cnnn2)c1Cl)C1C(=O)C2CCC(C2)C1=O` (stereo not shown) [compound 217]: in series [1], the “safety to the transplanted paddy rice” value is given as “safety to the transplanted paddy rice”. Also, the “herbicidal effect” value in series [2] is listed as “sufficient herbicidal effect”.

Consider `Cc1nnn(Cc2c(S(C)(=O)=O)ccc(C(=O)C3C(=O)CCCC3=O)c2Cl)n1` [compound 2364], for which, in series [1], the “safety to the transplanted paddy rice” value is recorded as “safety to the transplanted paddy rice”. For the same molecule, the “herbicidal effect” value in series [2] was “sufficient herbicidal effect”. In series [3], the “herbicidal activity against Setaria viridis” value turned out to be 90%. Moreover, in series [4], the “herbicidal activity against Echinochloa crusgalli” value is listed as 90%. Moreover, the “herbicidal activity against Amaranthus retroflexus” value in series [5] was 90%. In series [6], the “herbicidal activity against Polygonum” value is on record as 90%.

`CC1CC(=O)C(C(=O)c2ccc(Cl)c(OCCn3cnnn3)c2Cl)C(=O)C1` (stereo not shown) [compound 215]: the “herbicidal activity against Setaria viridis” value in series [3] was 90%. In series [4], the “herbicidal activity against Echinochloa crusgalli” value is 90%. Further, the “herbicidal activity against Amaranthus retroflexus” value in series [5] came out at 90%. For the same molecule, the “herbicidal activity against Polygonum” value in series [6] was 90%.

As for `Cc1nnn(CCOc2c(Cl)ccc(C(=O)C3C(=O)CCCC3=O)c2Cl)n1` [compound 2080], the “herbicidal activity against Setaria viridis” value in series [3] is 90%. Moreover, in series [4], the “herbicidal activity against Echinochloa crusgalli” value came to 90%. Besides, the “herbicidal activity against Amaranthus retroflexus” value in series [5] is 90%. In series [6], the “herbicidal activity against Polygonum” value turned out to be 90%.

With `Cc1nnnn1Cc1c(S(C)(=O)=O)ccc(C(=O)C2C(=O)CCCC2=O)c1Cl` [compound 558], in series [1], the “safety to the transplanted paddy rice” value is “safety to the transplanted paddy rice”. In addition, in series [2], the “herbicidal effect” value is reported as “sufficient herbicidal effect”.

Values taken from patent US20050090398A1, “Novel tetrazole derivative useful as herbicides” (priority 2002, published 2005).
